Among the test systems are 786-0 renal; SF-268 CNS; HT29 colon; RPMI-8226 leukemia; M14 melanoma; NCI-H226 lung; SNB-19 CNS; NCI-H23 lung; DU-145 prostate; MDA-MB-231 breast.
Holding throughout (test): growth of human tumour cells (NCI), 48 h

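Briefly, cells in 96-well plates were exposed to five compound concentrations for 48 h, and endpoints were estimated by linear interpolation. Here, GI50 denotes the concentration required for 50% inhibition of growth. TGI: concentration producing complete growth inhibition.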 Where only a bound is given, the exact number is not on record here.

Consider `COC[C@H]1Cn2cc(-c3nc(Nc4ccnn4C)ncc3C)nc2C(=O)N1Cc1ccc(F)c(F)c1`, for which the GI50 in the experiment with 786-0 renal is 88 µM; with SF-268 CNS, 29.3 µM; in the experiment on HT29 colon, 0.0436 µM; in the experiment on RPMI-8226 leukemia, 4.47 µM; in the experiment on M14 melanoma, 0.0403 µM; in the experiment on NCI-H226 lung it was 25.8 µM. For the same molecule, the GI50 in the experiment with SNB-19 CNS was more than 100 µM; with NCI-H23 lung, 0.181 µM; in the experiment on DU-145 prostate, 22.7 µM; in the experiment with MDA-MB-231 breast it was 0.678 µM. The TGI with 786-0 renal, with SF-268 CNS, with HT29 colon, with RPMI-8226 leukemia, in the experiment with M14 melanoma and in the experiment with NCI-H226 lung was more than 100 µM throughout. Besides, the TGI with SNB-19 CNS was more than 100 µM; with NCI-H23 lung, more than 100 µM; with DU-145 prostate it was more than 100 µM; in the experiment on MDA-MB-231 breast it was more than 78.6 µM.

As to `Cc1cc(I)cc(CN(CCCN(C)C)C(C)C)c1O`, the GI50 was 15.7 µM in the experiment on 786-0 renal; 17.1 µM with SF-268 CNS; 9.23 µM in the experiment with HT29 colon; 11.5 µM with RPMI-8226 leukemia; 16.2 µM in the experiment on M14 melanoma; 25.7 µM with NCI-H226 lung. Also, the GI50 in the experiment on SNB-19 CNS was 18.4 µM; with NCI-H23 lung, 31.4 µM; in the experiment with DU-145 prostate, 16.1 µM; with MDA-MB-231 breast, 18.1 µM. For the same molecule, the TGI in the experiment with 786-0 renal was 30.5 µM; in the experiment on SF-268 CNS, 32.9 µM; with HT29 colon, 21.2 µM; in the experiment with RPMI-8226 leukemia it was 26.7 µM; in the experiment on M14 melanoma, 31 µM; in the experiment on NCI-H226 lung it was more than 100 µM. Besides, the TGI is 42.5 µM with SNB-19 CNS, more than 100 µM in the experiment with NCI-H23 lung, 29.6 µM in the experiment on DU-145 prostate and 43.6 µM in the experiment with MDA-MB-231 breast.

Take `Nc1n[nH]c2cccc(C#Cc3cccc(C(=O)Nc4ccc(CN5CCOCC5)c(C(F)(F)F)c4)c3)c12`: the GI50 in the experiment with 786-0 renal was 2.79 µM; with SF-268 CNS, 2.72 µM; in the experiment with HT29 colon it was 1.89 µM; in the experiment on RPMI-8226 leukemia, 1.76 µM; in the experiment with M14 melanoma, 1.17 µM; with NCI-H226 lung, 1.14 µM. In addition, the GI50 is 3.36 µM with SNB-19 CNS, 2.1 µM in the experiment with NCI-H23 lung, 3.93 µM with DU-145 prostate and 1.3 µM in the experiment on MDA-MB-231 breast. Moreover, the TGI in the experiment with 786-0 renal came to 7.74 µM; in the experiment with SF-268 CNS, 13.3 µM; in the experiment with HT29 colon, 12.2 µM; in the experiment on RPMI-8226 leukemia, 5.62 µM; in the experiment on M14 melanoma, 3.59 µM; with NCI-H226 lung, 7.81 µM. In addition, the TGI in the experiment on SNB-19 CNS is 35.5 µM; with NCI-H23 lung, 11.3 µM; in the experiment on DU-145 prostate, 13.3 µM; in the experiment on MDA-MB-231 breast it was 4.7 µM.

With `CC1(C)OC1COc1c2occc2cc2ccc(=O)oc12` (stereo not given), the TGI in the experiment with 786-0 renal, with SF-268 CNS, with HT29 colon, in the experiment on RPMI-8226 leukemia, in the experiment on M14 melanoma and in the experiment on NCI-H226 lung was more than 100 µM throughout. For the same molecule, the TGI in the experiment on SNB-19 CNS, with NCI-H23 lung, with DU-145 prostate and with MDA-MB-231 breast was more than 100 µM throughout.

Regarding `CCCOc1cc2ccccc2cc1C(=O)Nc1nc(N)c2c(ccc3nccc32)[nH]1`, the GI50 is 0.0509 µM with 786-0 renal; 0.0658 µM in the experiment with SF-268 CNS; 0.0341 µM in the experiment on HT29 colon; 0.113 µM with RPMI-8226 leukemia; 0.0405 µM in the experiment with M14 melanoma; 1.31 µM with NCI-H226 lung. In addition, the GI50 with SNB-19 CNS is 0.0655 µM; in the experiment with NCI-H23 lung, 0.209 µM; in the experiment with DU-145 prostate, 0.0487 µM; with MDA-MB-231 breast, 1.06 µM. Further, the TGI came to 1.56 µM in the experiment on 786-0 renal; 2.86 µM with SF-268 CNS; 0.129 µM in the experiment with HT29 colon; 2.15 µM in the experiment with RPMI-8226 leukemia; 1.08 µM in the experiment on M14 melanoma; 3.32 µM with NCI-H226 lung. Besides, the TGI is 2.08 µM in the experiment on SNB-19 CNS, 2.04 µM with NCI-H23 lung, 1.45 µM with DU-145 prostate and 2.85 µM in the experiment on MDA-MB-231 breast.

As to `COc1cccc(C2SC(N)=Nc3c2c(C)nn3C(=O)c2ccccc2O)c1` (stereo not given), the TGI with 786-0 renal is more than 10 µM; in the experiment with SF-268 CNS, more than 10 µM; in the experiment on HT29 colon, more than 10 µM; with RPMI-8226 leukemia, more than 10 µM; in the experiment with M14 melanoma it was more than 10 µM; in the experiment with NCI-H226 lung it was more than 7.78 µM. For the same molecule, the TGI is more than 10 µM in the experiment on SNB-19 CNS, more than 10 µM with NCI-H23 lung, more than 10 µM in the experiment on DU-145 prostate and more than 9.64 µM in the experiment on MDA-MB-231 breast.

As to `CN1CC[C@@H](NC(=O)Nc2ccc(C#N)cc2)C[C@@H]1c1nc2ccccc2[nH]1`, the GI50 with 786-0 renal is more than 100 µM; in the experiment with SF-268 CNS, more than 100 µM; in the experiment on HT29 colon, more than 74.2 µM; in the experiment with RPMI-8226 leukemia, more than 100 µM; with M14 melanoma it was more than 100 µM; in the experiment on NCI-H226 lung it was more than 100 µM. Also, the GI50 is more than 100 µM with SNB-19 CNS, more than 42.3 µM with NCI-H23 lung, more than 100 µM with DU-145 prostate and more than 100 µM in the experiment with MDA-MB-231 breast. Further, the TGI in the experiment on 786-0 renal, in the experiment on SF-268 CNS, with HT29 colon, in the experiment on RPMI-8226 leukemia, in the experiment with M14 melanoma and in the experiment with NCI-H226 lung was more than 100 µM in each case. The TGI is more than 100 µM in the experiment with SNB-19 CNS, more than 60.8 µM in the experiment with NCI-H23 lung, more than 100 µM in the experiment with DU-145 prostate and more than 100 µM in the experiment on MDA-MB-231 breast.
